{"source": "paper PMC3210601", "about": "“New Tetromycin Derivatives with Anti-Trypanosomal and Protease Inhibitory Activities” (Marine Drugs, 2011)", "key": {"[1]": {"tested_on": "Leishmania major promastigotes", "test": "Anti-Leishmania Alamar Blue assay (promastigotes)", "conditions": "read-out: IC50 L. major"}, "[2]": {"tested_on": "Trypanosoma brucei subsp. brucei", "test": "Anti-Trypanosoma Alamar Blue assay (trypomastigotes, strain TC 221)"}, "[3]": {"test": "Cytotoxicity Alamar Blue assay, 293T kidney epithelial cells", "conditions": "human"}, "cathepsin B": {"target": "cathepsin B (Homo sapiens, UniProt P07858)", "test": "Fluorometric protease inhibition assay, cathepsin B", "type": "biochemical, mammalian", "conditions": "for Ki: non-time dependent, Dixon equation, corrected to zero substrate, substrate 100 μM, pH 6.2, 25 °C, read-out: CB Ki"}, "cathepsin L": {"target": "cathepsin L (Homo sapiens, UniProt P07711)", "sequence (P07711 114-333, species assumed)": "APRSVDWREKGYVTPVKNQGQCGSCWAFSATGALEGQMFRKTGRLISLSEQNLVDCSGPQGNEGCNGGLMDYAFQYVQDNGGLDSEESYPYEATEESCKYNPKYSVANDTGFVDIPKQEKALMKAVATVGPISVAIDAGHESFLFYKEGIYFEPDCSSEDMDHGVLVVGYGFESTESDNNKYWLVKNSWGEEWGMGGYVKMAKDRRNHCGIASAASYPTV", "test": "Fluorometric protease inhibition assay, cathepsin L", "type": "biochemical, mammalian", "conditions": "for Ki: read-out: CL Ki; for CL k2nd: time-dependent inhibition, k2nd = ki/Ki"}, "falcipain-2": {"target": "falcipain-2 (Plasmodium falciparum, UniProt Q8I6U4)", "sequence (Q8I6U4 244-484)": "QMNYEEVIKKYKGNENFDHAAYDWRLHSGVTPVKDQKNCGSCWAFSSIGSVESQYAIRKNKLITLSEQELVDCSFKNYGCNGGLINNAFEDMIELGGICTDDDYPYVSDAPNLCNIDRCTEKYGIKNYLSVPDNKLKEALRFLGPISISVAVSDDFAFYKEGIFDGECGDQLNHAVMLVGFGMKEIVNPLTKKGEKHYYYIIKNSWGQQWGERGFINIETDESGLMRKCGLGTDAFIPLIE", "test": "Fluorometric protease inhibition assay, falcipain-2", "type": "biochemical, P. falciparum", "conditions": "for Ki: read-out: FP Ki; for FP k2nd: time-dependent inhibition, k2nd = ki/Ki"}, "rhodesain": {"target": "rhodesain (Trypanosoma brucei rhodesiense, UniProt Q95PM0)", "sequence (Q95PM0 entry or part of it)": "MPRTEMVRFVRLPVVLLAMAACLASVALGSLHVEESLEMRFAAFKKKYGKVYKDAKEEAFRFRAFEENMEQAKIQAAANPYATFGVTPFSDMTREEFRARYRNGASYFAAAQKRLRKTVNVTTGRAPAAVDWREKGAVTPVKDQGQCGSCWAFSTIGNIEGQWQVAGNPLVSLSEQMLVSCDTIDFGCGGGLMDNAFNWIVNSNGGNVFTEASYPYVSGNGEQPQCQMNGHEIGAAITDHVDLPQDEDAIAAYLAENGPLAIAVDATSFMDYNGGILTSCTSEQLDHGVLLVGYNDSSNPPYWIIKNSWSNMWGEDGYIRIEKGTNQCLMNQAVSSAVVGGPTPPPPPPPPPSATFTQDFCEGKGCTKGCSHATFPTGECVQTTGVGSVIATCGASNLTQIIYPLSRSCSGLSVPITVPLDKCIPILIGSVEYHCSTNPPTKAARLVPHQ", "test": "Fluorometric protease inhibition assay, rhodesain", "type": "biochemical, T. brucei rhodesiense", "conditions": "for Ki: read-out: RD Ki; for RD k2nd: time-dependent inhibition, k2nd = ki/Ki"}, "SARS-CoV PL^pro": {"target": "SARS-CoV PL^pro (Severe acute respiratory syndrome coronavirus, UniProt P0C6X7)", "test": "biochemical"}, "[4]": {"conditions": "mouse"}, "[5]": {"conditions": "48 h, read-out: IC50 T. brucei brucei (48 h)"}, "[6]": {"conditions": "72 h, read-out: IC50 T. brucei brucei (72 h)"}, "[7]": {"conditions": "progress curves, inhibitor 0-16.7 μM (Figure 6)"}}, "note": "Where “and” joins values, the source holds several entries; their conditions need not be identical. Identical values can stand only once. Like-named read-outs stand apart in the source and are kept apart here."}
{"smiles": "COc1cc(C)c(C(=O)NC2C(C)OC(OC3CC(C)=CC4C3CC(C)C3/C(C)=C\\CC/C(C)=C/C5(C)C=C(C(=O)O)C(C)CC56OC(=O)C(=C6O)C(=O)C43C)C(O)C2(C)O)c(O)c1", "note": "(stereo not drawn) [Compound 1, Tetromycin 1]", "values": [{"measurement": "IC50", "setting": "[1]", "result": "> 100", "unit": "µM"}, {"measurement": "IC50", "setting": "[2]; [5]", "result": 29.3, "unit": "µM"}, {"measurement": "IC50", "setting": "[2]; [6]", "result": 31.7, "unit": "µM"}, {"measurement": "IC50 at 24 h", "setting": "[3]; 293T kidney epithelial cells", "result": "> 100", "unit": "µM"}]}
{"smiles": "COc1cc(C)c(C(=O)OC2C(C)OC(OC3CC(C)=CC4C3CC(C)C3/C(C)=C\\CC/C(C)=C/C5(C)C=C(C(=O)O)C(C)CC56OC(=O)C(=C6O)C(=O)C43C)C(O)C2O)c(OC)c1", "note": "(stereo not drawn) [Compound 2, Tetromycin 2]", "values": [{"measurement": "IC50", "setting": "[1]", "result": "> 100", "unit": "µM"}, {"measurement": "IC50", "setting": "[2]; [5]", "result": 45.4, "unit": "µM"}, {"measurement": "IC50", "setting": "[2]; [6]", "result": 80.3, "unit": "µM"}, {"measurement": "IC50 at 24 h", "setting": "[3]; 293T kidney epithelial cells", "result": "> 100", "unit": "µM"}]}
{"smiles": "COc1cc(O)cc(C)c1C(=O)OC1C(C)OC(OC2CC=C(C)C3C2CC(C)C2/C(C)=C\\CC/C(C)=C/C4C=C(C(=O)O)C(C)CC45OC(=O)C(=C5O)C(=O)C32C)C(O)C1O", "note": "(stereo not drawn) [Compound 3, Tetromycin 3]", "values": [{"measurement": "Ki", "setting": "cathepsin B", "result": "0.57 ± 0.04", "unit": "µM"}, {"measurement": "IC50", "setting": "[1]", "result": 36.8, "unit": "µM"}, {"measurement": "Ki", "setting": "cathepsin L", "result": "15 ± 1.95", "unit": "µM"}, {"measurement": "CL k2nd", "setting": "cathepsin L", "result": "14,977 ± 2005 M^−1 min^−1"}, {"measurement": "Ki", "setting": "falcipain-2", "result": "1.65 ± 0.25", "unit": "µM"}, {"measurement": "FP k2nd", "setting": "falcipain-2", "result": "617 ± 9", "unit": "M⁻¹ min⁻¹"}, {"measurement": "IC50", "setting": "[2]; [5]", "result": 26.9, "unit": "µM"}, {"measurement": "IC50", "setting": "[2]; [6]", "result": 30.4, "unit": "µM"}, {"measurement": "ki (rate constant of inhibition) rhodesain", "setting": "rhodesain; Figure 8, data from two independent assays", "result": 0.042, "unit": "min⁻¹"}, {"measurement": "Ki", "setting": "rhodesain", "result": "2.1 ± 0.9", "unit": "µM"}, {"measurement": "RD k2nd", "setting": "rhodesain", "result": "36,600 ± 1590 M^−1 min^−1"}, {"measurement": "IC50 at 24 h", "setting": "[3]; 293T kidney epithelial cells", "result": 33.4, "unit": "µM"}]}
{"smiles": "COc1cc(O)cc(C)c1C(=O)OC1C(C)OC(OC2CC(C)=CC3C2CC(C)C2/C(C)=C\\CC/C(C)=C/C4(C)C=C(C(=O)O)C(C)CC45OC(=O)C(=C5O)C(=O)C32C)C(O)C1O", "note": "(stereo not drawn) [Compound 4, Tetromycin 4]", "values": [{"measurement": "Ki", "setting": "cathepsin B", "result": "1.6 ± 0.1", "unit": "µM"}, {"measurement": "IC50", "setting": "[1]", "result": "> 100", "unit": "µM"}, {"measurement": "Ki", "setting": "cathepsin L", "result": "22.4 ± 0.8", "unit": "µM"}, {"measurement": "CL k2nd", "setting": "cathepsin L", "result": "14,700 ± 1000 M^−1 min^−1"}, {"measurement": "Ki", "setting": "falcipain-2", "result": "3.1 ± 0.2", "unit": "µM"}, {"measurement": "FP k2nd", "setting": "falcipain-2", "result": "1836 ± 108", "unit": "M⁻¹ min⁻¹"}, {"measurement": "IC50", "setting": "[2]; [5]", "result": 35.9, "unit": "µM"}, {"measurement": "IC50", "setting": "[2]; [6]", "result": 41.6, "unit": "µM"}, {"measurement": "Ki", "setting": "rhodesain", "result": "4 ± 0.3", "unit": "µM"}, {"measurement": "RD k2nd", "setting": "rhodesain", "result": "8354 ± 1562", "unit": "M⁻¹ min⁻¹"}, {"measurement": "IC50 at 24 h", "setting": "[3]; 293T kidney epithelial cells", "result": 58.6, "unit": "µM"}, {"measurement": "Ki", "setting": "SARS-CoV PL^pro", "result": "40 ± 6.5", "unit": "µM"}]}
{"smiles": "CC1=CC2(C)/C=C(\\C)CC/C=C(/C)C3C(C)=CC4C(O)CCC(C)C4C3(C)C(=O)C3=C(O)C2(CC1C)OC3=O", "note": "(stereo not drawn) [Compound 5, Tetromycin B]", "values": [{"measurement": "Ki", "setting": "cathepsin B", "result": "1.5 µM and 1.59 µM"}, {"measurement": "time dependence of inhibition, cathepsin B", "setting": "cathepsin B; [7]", "result": "non-time dependent inhibition"}, {"measurement": "IC50", "setting": "[1]", "result": "> 100", "unit": "µM"}, {"measurement": "Ki", "setting": "cathepsin L", "result": "32.5 ± 0.05", "unit": "µM"}, {"measurement": "CL k2nd", "setting": "cathepsin L", "result": "1576 ± 413", "unit": "M⁻¹ min⁻¹"}, {"measurement": "Ki", "setting": "falcipain-2", "result": "1.42 ± 0.01", "unit": "µM"}, {"measurement": "FP k2nd", "setting": "falcipain-2", "result": "15,540 ± 1295 M^−1 min^−1"}, {"measurement": "IC50", "setting": "[2]; [5]", "result": 30.9, "unit": "µM"}, {"measurement": "IC50", "setting": "[2]; [6]", "result": 34.2, "unit": "µM"}, {"measurement": "mode of inhibition with respect to the substrate, rhodesain", "setting": "rhodesain; Ki determined at three different substrate concentrations", "result": "competitive inhibition"}, {"measurement": "time dependence of inhibition, rhodesain", "setting": "rhodesain; [7]", "result": "time-dependent inhibition"}, {"measurement": "Ki", "setting": "rhodesain", "result": "0.62 ± 0.03", "unit": "µM"}, {"measurement": "RD k2nd", "setting": "rhodesain", "result": "14,539 ± 1949 M^−1 min^−1"}, {"measurement": "IC50 at 24 h", "setting": "[3]", "result": 71.8, "unit": "µM"}, {"measurement": "Ki", "setting": "SARS-CoV PL^pro", "result": "69.6 ± 7.2", "unit": "µM"}, {"measurement": "IC50 at 24 h", "setting": "[4]", "result": 20.2, "unit": "µM"}]}
